Entries after “also recorded” stand apart in the source; their conditions may differ.
Experiments:
[1] = system: Cushing's syndrome patients; experiment: Clinical study of relacorilant in Cushing's syndrome patients (coagulation factors, inflammation markers, comorbidities); format: in vivo, human
Description: In TABLE 1 above, the P-value is a Wilcoxon Signed Rank P-value; mean change from baseline indicates the mean change from the initial (baseline) values to the last-observed values; Factor VIII values are reported as percent of normal values; platelet counts and eosinophil counts are reported as numbers of cells per liter; APTT indicates activated partial thromboplastin time, measured in seconds; and serum osteocalcin measures levels of the vitamin K-related hormone osteocalcin outside of bone. […] Relacorilant was administered to the patients once per day for four months. Two groups of Cushing's syndrome patients received relacorilant. Group 1 received 100 milligrams per day (mg/day) which, if tolerated, was raised to 200 mg/day for the 16 weeks of the study. Group 2 received relacorilant doses according to the following schedule: the starting doses were 250 milligrams (mg) per day of relacorilant for four weeks, followed by 300 mg/day relacorilant for the next four weeks, followed by 350 mg/day relacorilant for a further four weeks, and then 400 mg relacorilant for another four weeks. […] Factor VIII and von Willebrand Factor at baseline, prior to relacorilant administration (left-most pair of columns); after four weeks of relacorilant treatment (middle pair of columns); and after 3 or 4 months of relacorilant treatment (right-most pair of columns). Factor VIII levels are reduced, as compared to baseline, at week four and after 3 or 4 months of relacorilant treatment. […] The APTT of Group 2 patients receiving relacorilant was measured at baseline (before relacorilant administration) and after 16 weeks (or following the last relacorilant administration for those patients who […] the full 16 weeks of relacorilant administration). […] Increased APTT indicates an increase in the time for blood coagulation; that is, a reduction in hypercoagulation.

[2] = system: Cushing's syndrome patients; settings: see U.S. Patent Application 62/783,015; cited from earlier work
[3] = baseline to last-observed values, cells per liter
[4] = generally observed within two weeks of achieving a therapeutic dose

Cn1cc(S(=O)(=O)N2CCC3=Cc4c(cnn4-c4ccc(F)cc4)C[C@]3(C(=O)c3cc(C(F)(F)F)ccn3)C2)cn1 [relacorilant, (R)-(1-(4-fluorophenyl)-6-((1-methyl-1H-pyrazol-4-yl)sulfonyl)-4,4a,5,6,7,8-hexahydro-1H-pyrazolo[3,4-g]isoquinolin-4a-yl)(4-(trifluoromethyl)pyridin-2-yl)methanone]
Coagulation profile (coagulation factors, thrombin-antithrombin) compared to baseline ([1]; FIG. 2B): improved compared to baseline
APTT compared to baseline ([1]; Group 2 patients (250 to 400 mg/day), 12 patients, after 16 weeks or last administration (FIG. 2A), p-value 0.014): increased significantly
Von Willebrand factor levels compared to baseline ([1]; after 3 or 4 months of relacorilant treatment (FIG. 1A)): return to baseline levels
C-Reactive protein levels compared to baseline ([1]; after 3 or 4 months of relacorilant treatment (FIG. 3)): return to baseline levels
Factor VIII levels compared to baseline ([1]; after 3 or 4 months of relacorilant treatment, end of study (FIG. 1A)): reduced; also recorded: normalized
Abnormally elevated coagulation factors caused by excess cortisol activity ([1]; as early as after one month of treatment): Improvement/normalization
Von Willebrand factor levels compared to baseline ([1]; at four weeks of relacorilant treatment (FIG. 1A)): initially rise somewhat
C-Reactive protein levels compared to baseline ([1]; at four weeks of relacorilant treatment (FIG. 3)): initially rise somewhat
Serum Osteocalcin, Mean Change from Baseline ([1]; baseline to last-observed values): 3.00 µg/L
Coagulopathy (APTT), Mean Change from Baseline ([1]; baseline to last-observed values, activated partial thromboplastin time): +1.45 Seconds
Coagulopathy (Platelets), Mean Change from Baseline [1, 3]: −68.82 10^9/L
Inflammation (eosinophils), Mean Change from Baseline [1, 3]: 0.05 10^9/L
Coagulopathy (Factor VIII), Mean Change from Baseline ([1]; baseline to last-observed values, percent of normal values, Cushing's syndrome patients, relacorilant once per day): −18.94%
Thromboembolic events ([1]; clinical study of 35 Cushing's syndrome patients treated with relacorilant): No thromboembolic events were observed
Hyperglycemia [1, 4]: improvement
Hypertension [1, 4]: improvement
Factor VIII levels compared to baseline ([1]; week four of relacorilant treatment (FIG. 1A)): reduced
Effect on cortisol [2]: not raising cortisol
Risk of hypokalemia [2]: not increasing the risk of hypokalemia
